The numbers were not newly measured in US20210353546A1, “DUAL RELEASE PHARMACEUTICAL COMPOSITIONS COMPRISING THE COMBINATION OF A BETA-3 ADRENORECEPTOR AGONIST AND A MUSCARINIC RECEPTOR ANTAGONIST” (Jubilant Pharma Holdings Inc., priority 2020, published 2021), which cites them from elsewhere.

Assay in series [1]: not given
The source holds these as a separate data set.

Where two headings read alike, the source gives them in different places.

`Nc1nc(CC(=O)Nc2ccc(CCNC[C@H](O)c3ccccc3)cc2)cs1` [Mirabegron, 2-(2-aminothiazol-4-yl)-N-[4-(2-{[(2R)-2-hydroxy2-phenylethyl]amino}ethyl)phenyl] acetamide]: the half-life entry (in vivo) was “approximately 50 hours”. For the setting “presence of food in the Gastrointestinal Tract”, the “bioavailability, food effect” value is reported as “affected by the presence of food”. Also, the values for the Solubility result in series [1] (in dimethyl sulfoxide), in series [1] (in methanol) and in series [1] (in water) were “soluble”, “soluble” and “practically insoluble”, respectively.
